Laboratory results from patent publication US11999732B2, “P2X3 receptor antagonists” (RECORDATI INDUSTRIA CHIMICA E FARMACEUTICA SPA, priority 2018, dated 2024).
Read-outs that look alike come from different tables or passages of the source.

Molecular target: T1, human P2X3 receptor (Homo sapiens, UniProt P56373)
T1 construct: expressed in transfected cells; host or cells: CHO-K1
T1 sequence (P56373 1-397): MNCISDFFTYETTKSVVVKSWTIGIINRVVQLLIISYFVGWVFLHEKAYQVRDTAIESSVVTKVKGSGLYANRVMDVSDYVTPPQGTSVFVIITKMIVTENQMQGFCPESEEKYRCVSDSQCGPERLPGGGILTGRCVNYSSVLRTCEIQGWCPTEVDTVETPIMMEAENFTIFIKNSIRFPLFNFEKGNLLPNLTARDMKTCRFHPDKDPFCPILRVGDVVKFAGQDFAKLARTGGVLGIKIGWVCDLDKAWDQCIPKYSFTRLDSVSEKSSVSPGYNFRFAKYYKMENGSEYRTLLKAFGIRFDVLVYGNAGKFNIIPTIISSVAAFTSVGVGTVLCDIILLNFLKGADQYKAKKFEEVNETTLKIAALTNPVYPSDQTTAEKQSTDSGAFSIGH
Test: Calcium luminescence (photoprotein) assay in CHO-K1 cells co-expressing human P2X3 receptor, α,β-Met-ATP stimulation, FLEXSTATION readout
Format: cell-based
Settings: human P2X3 receptor antagonist activity, CHO-K1 cells, α,β-Met-ATP, read-out: h-P2X3 IC50
Outline: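 CHO-K1 cells co-expressing human P2X3 and a Ca2+-sensitive photoprotein, loaded with coelenterazine in Tyrode's buffer (pH 7.4) for 4 h at 37 °C. Compounds injected 4 min before α,β-Met-ATP stimulation; luminescence recorded, IC50 and pseudo-Hill slope from nonlinear regression of inhibition curves.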

With `COc1ccc(Cc2nn3c(CC4CCOCC4)nnc3c3ncc(N4CCOCC4)cc23)cc1` [Example 125, 6-(4-methoxybenzyl)-8-(morpholin-4-yl)-3-(tetrahydro-2H-pyran-4-ylmethyl)pyrido[2,3-d][1,2,4]triazolo[4,3-b]pyridazine] the IC50 (Table 8) was 538 nM.
`COCC1CN2C(=O)N(Cc3ccc(Cl)cc3)c3cc(N4CCOCC4)cnc3C2=N1` (centres unmarked) [Example 11, 6-(4-chlorobenzyl)-2-(methoxymethyl)-8-(morpholin-4-y1)-2,6-dihydroimidazo[1,2-c]pyrido[2,3-e]pyrimidin-5(3H)-one] was tested, and the IC50 (Table 6) was 358 nM.
For `COCCC1CN2C(=O)N(Cc3ccc(OC)cc3)c3cc(N4CCOCC4)cnc3C2=N1` (centres unmarked) [Example 65, 6-(4-methoxybenzyl)-2-(2-methoxyethyl)-8-(morpholin-4-yl)-2,6-dihydroimidazo[1,2-c]pyrido[2,3-e]pyrimidin-5(3H)-one], the IC50 (Table 6) was 1790 nM.
`Cc1c(C(C)C)nc2c3ncc(C(=O)N4CCC(O)CC4)cc3n(Cc3ccc(Cl)cc3)c(=O)n12` [Example 94, 6-(4-chlorobenzyl)-8-[(4-hydroxypiperidin-1-yl)carbonyl]-3-methyl-2-(propan-2-yl)imidazo[1,2-c]pyrido[2,3-e]pyrimidin-5(6H)-one] showed an IC50 (Table 7) of 8260 nM.
For `CC(C)(C)c1nnc2c3ncc(Br)cc3c(Cc3ccc(Cl)cc3)nn12` [Example 112, 8-bromo-3-tert-butyl-6-(4-chlorobenzyl)pyrido[2,3-d][1,2,4]triazolo[4,3-b]pyridazine], the IC50 (Table 8) was 1440 nM.
With `COc1ccc(Cn2c(=O)n3c(C4(C)CC4)nnc3c3ncc(N4CCOCC4)cc32)cc1` [Example 174, 6-(4-methoxybenzyl)-3-(1-methylcyclopropyl)-8-(morpholin-4-yl)pyrido[2,3-e][1,2,4]triazolo[4,3-c]pyrimidin-5(6H)-one] the IC50 (Table 9) was 78.5 nM.
`COc1cc(Cn2c(=O)n3c(C)c(C(C)C)nc3c3ncc(NCC4COC4)cc32)cc(OC)c1` [Example 83, 6-(3,5-dimethoxybenzyl)-3-methyl-8-[(oxetan-3-ylmethyl)amino]-2-(propan-2-yl)imidazo[1,2-c]pyrido[2,3-e]pyrimidin-5(6H)-one] showed an IC50 (Table 7) of 292 nM.
`COc1cc(CN2C(=O)N3CC(c4ccccc4)N=C3c3ncc(N4CCOCC4)cc32)cc(OC)c1` (centres unmarked) [Example 46, 6-(3,5-dimethoxybenzyl)-8-(morpholin-4-yl)-2-phenyl-2,6-dihydroimidazo[1,2-c]pyrido[2,3-e]pyrimidin-5(3H)-one] gave an IC50 (Table 6) of 127 nM.
For `CC(C)(C)C1C(=O)N=C2c3ncc(N4CCOCC4)cc3N(Cc3ccc(Cl)cc3)C(=O)N21` (centres unmarked) [Example 68, 3-tert-butyl-6-(4-chlorobenzyl)-8-(morpholin-4-yl)imidazo[1,2-c]pyrido[2,3-e]pyrimidine-2,5(3H,6H)-dione], the IC50 (Table 6) was 109 nM.
With `O=c1n(Cc2ccc(Cl)cc2)c2cc(N3CCOCC3)cnc2c2nnc(Cc3cccnc3)n12` [Example 100, 6-(4-chlorobenzyl)-8-(morpholin-4-y1)-3-(pyridin-3-ylmethyl)pyrido[2,3-e][1,2,4]triazolo[4,3-c]pyrimidin-5(6H)-one] the IC50 (Table 7) was 153 nM.
In the case of `COc1cc(CN2C(=O)N3CC(C)CN=C3c3ncc(N4CCOCC4)cc32)cc(OC)c1` (centres unmarked) [Example 145, 5-(3,5-dimethoxybenzyl)-9-methyl-3-(morpholin-4-yl)-5,8,9,10-tetrahydro-6H-pyrido[2,3-e]pyrimido[1,2-c]pyrimidin-6-one], the IC50 (Table 9) is reported as 1780 nM.
`COc1cc(CN2C(=O)N3C(=NCC3CC(C)C)c3ncc(N4CCOCC4)cc32)cc(OC)c1` (centres unmarked) [Example 35, 6-(3,5-dimethoxybenzyl)-3-(2-methylpropyl)-8-(morpholin-4-yl)-2,6-dihydroimidazo[1,2-c]pyrido[2,3-e]pyrimidin-5(3H)-one] showed an IC50 (Table 6) of 793 nM.
`COc1cc(CN2C(=O)N3CC(CC(C)C)N=C3c3ncc(N4CCOCC4)cc32)cc(OC)c1` (centres unmarked) [Example 22, 6-(3,5-dimethoxybenzyl)-2-(2-methylpropyl)-8-(morpholin-4-yl)-2,6-dihydroimidazo[1,2-c]pyrido[2,3-e]pyrimidin-5(3H)-one] showed an IC50 (Table 6) of 143 nM.
`CC(C)c1nnc2c3ncc(N4CCOCC4)cc3c(Cc3ccc(Cl)cc3)nn12` [Example 127, 6-(4-chlorobenzyl)-8-(morpholin-4-yl)-3-(propan-2-yl)pyrido[2,3-d][1,2,4]triazolo[4,3-b]pyridazine] showed an IC50 (Table 8) of 147 nM.
`COc1cc(Cc2nn3c(CC(C)C)nnc3c3ncc(N4CCOCC4)cc23)cc(OC)c1` [Example 116, 6-(3,5-dimethoxybenzyl)-3-(2-methylpropyl)-8-(morpholin-4-yl)pyrido[2,3-d][1,2,4]triazolo[4,3-b]pyridazine] gave an IC50 (Table 8) of 469 nM.
Work on `CCC1CN=C2c3ncc(N4CCOCC4)cc3N(Cc3ccc(OC)cc3)C(=O)N21` (centres unmarked) [Example 53, 3-ethyl-6-(4-methoxybenzyl)-8-(morpholin-4-y1)-2,6-dihydroimidazo[1,2-c]pyrido[2,3-e]pyrimidin-5(3H)-one] yielded an IC50 (Table 6) of 2070 nM.
Work on `CC(C)C1CN2C(=O)N(Cc3ccc(Cl)cc3)c3cc(N4CC5(COC5)C4)cnc3C2=N1` (centres unmarked) [Example 15, 6-(4-chlorobenzyl)-8-(2-oxa-6-azaspiro[3.3]heptan-6-yl)-2-(propan-2-y1)-2,6-dihydroimidazo[1,2-c]pyrido[2,3-e]pyrimidin-5(3H)-one] yielded an IC50 (Table 6) of 1430 nM.
